# Test results from patent publication US8129396B2, “2-[1H-benzimidazol-2(3H)-ylidene]-2-(pyrimidin-2-yl)acetamides and 2-[benzothiazol-2(3H)-ylidene]-2-(pyrimidin-2-yl)acetamides as kinase inhibitors” (Telik, Inc., priority 2008, dated 2012).
# How the values were obtained:
# [1] = target: T1, Aurora B kinase (Homo sapiens, UniProt Q96GD4); experiment: Aurora B kinase assay (IMAP fluorescence polarization); format: biochemical; conditions: 10 μM ATP; rounded to 1 significant figure; read-out: Aur-B IC50
# T1 construct: purchased BPS Bioscience
# T1 sequence (Q96GD4 whole entry): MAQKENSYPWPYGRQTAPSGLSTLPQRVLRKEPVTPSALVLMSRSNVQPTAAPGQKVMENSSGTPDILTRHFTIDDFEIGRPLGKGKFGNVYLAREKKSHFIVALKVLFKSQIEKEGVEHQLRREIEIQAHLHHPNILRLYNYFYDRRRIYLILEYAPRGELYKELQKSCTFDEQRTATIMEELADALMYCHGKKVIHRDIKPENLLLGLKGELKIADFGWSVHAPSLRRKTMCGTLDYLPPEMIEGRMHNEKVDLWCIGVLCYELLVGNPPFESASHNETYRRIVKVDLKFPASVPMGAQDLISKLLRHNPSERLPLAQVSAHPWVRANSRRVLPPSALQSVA
# Summary of the method: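 Reaction started with 100 nM fluorescein-labelled PKAtide and 10 μM ATP, run 45 min at room temperature, then stopped with IMAP binding reagent (1:400). After 30 min shaking at room temperature, fluorescence polarization read; run in duplicate with solvent control.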
# [2] = test system: HL60 (human promyelocytic leukemia) cells; experiment: HL60 cytotoxicity assay (CellTiter-Glo); format: cell-based; conditions: HL-60, 72 h, cytotoxicity, three days culture, read-out: HL60 IC50
# Text: (§1) The cell lines HL60 (human promyelocytic leukemia) and HCT116 (human colon carcinoma) were obtained from the American Type Culture Collection, Manassas, Va., U.S.A., and HUVEC-2 (human umbilical vein endothelial cells) from BD Biosciences, Bedford, Mass., U.S.A. Aurora A kinase was obtained from Upstate Biotech, Billerica, Mass., U.S.A.; Aurora B kinase from BPS Bioscience, San Diego, Calif., U.S.A.; and VEGFR2 kinase from Cell Signaling Technology, Danvers, Mass., U.S.A. The IMAP FP Screening Express kit was obtained from Molecular Devices, Sunnyvale, Calif., U.S.A.; the CellTiter-Glo assay kit from Promega Corporation, Madison, Wis., U.S.A.; and the Cellular DNA Cytometric Analysis Reagent Kit and BrdU labeling and detection kit from Roche Diagnostics Corporation, Indianapolis, Ind., U.S.A. All products were used in accordance with manufacturer's directions. Kinase inhibition assays and the histone phosphorylation (p-H3) assay were conducted in duplicate, and the cytotoxicity and HUVEC proliferation assays were conducted in triplicate, in each case with solvent control.
# Log-phase cells were trypsinized, collected by centrifugation, and resuspended in a small volume of fresh medium, and the density of viable cells was determined following Trypan Blue staining. Cells were diluted in fresh media (1×10^4 cells/mL for HL60 and 4×10^4 cells/mL for HCT116 cells), the test compounds (concentrations between 0.1 μM and 200 μM, dissolved in DMSO, 50 μL) added immediately after dilution to achieve a final DMSO concentration of 0.5%, then the suspensions added at 150 μL/well to 96-well plates, and incubated overnight to allow attachment in the case of adherent cells. The cells were cultured for three days (about three doubling times). The cells were then collected by centrifugation, and 100 μL of the culture supernatant was replaced by the CellTiter-Glo reagent. After incubation for 15 minutes at room temperature, the plate was read with a luminometer.
# [3] = target: T2, Aurora A kinase (Homo sapiens, UniProt O14965); experiment: Aurora A kinase assay (IMAP fluorescence polarization); format: biochemical; conditions: 10 μM ATP; rounded to 1 significant figure; read-out: Aur-A IC50
# T2 construct: purchased Upstate Biotech
# T2 sequence (O14965 1-403): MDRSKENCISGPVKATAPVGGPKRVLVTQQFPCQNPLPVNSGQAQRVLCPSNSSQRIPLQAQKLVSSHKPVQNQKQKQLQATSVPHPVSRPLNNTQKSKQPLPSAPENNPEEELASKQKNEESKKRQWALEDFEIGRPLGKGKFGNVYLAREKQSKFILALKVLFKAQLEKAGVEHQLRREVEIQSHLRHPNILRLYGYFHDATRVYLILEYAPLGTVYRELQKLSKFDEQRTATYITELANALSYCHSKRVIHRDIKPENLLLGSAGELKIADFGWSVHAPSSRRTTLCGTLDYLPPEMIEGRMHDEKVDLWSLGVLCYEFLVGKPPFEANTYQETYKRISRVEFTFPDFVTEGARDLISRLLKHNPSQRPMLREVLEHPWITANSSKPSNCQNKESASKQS
# Summary of the method: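 Compounds (eight 3-fold dilutions, 2.5% DMSO final) were preincubated 5 min at room temperature with Aurora A kinase in buffer with 1 mM DTT. Reaction with 100 nM fluorescein-PKAtide and 10 μM ATP ran 45 min at room temperature, then was stopped with IMAP binding reagent; fluorescence polarization was read after 30 min.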
# [4] = test system: p-H3 in HCT116 cells; experiment: Histone phosphorylation (p-H3) assay; format: cell-based; conditions: Homo sapiens, HCT-116; HCT116 cells, 4 hr incubation; read-out: p-H3 IC50
# Summary of the method: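 HCT116 cells (2.5×10^4/well, attached overnight) treated 4 h with 8-point 3-fold compound dilutions at 0.5% DMSO. Lysates dot-blotted onto nitrocellulose and probed for p-H3 with β-actin on the same membrane, fluorescent secondary antibodies, Odyssey scan; duplicate wells.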
# [5] = test system: HCT116 (human colon carcinoma) cells; experiment: HCT116 cytotoxicity assay (CellTiter-Glo); format: cell-based; conditions: HCT-116, 72 h, cytotoxicity, three days culture, read-out: HCT116 IC50
# [6] = target: T3, VEGFR2 kinase (Homo sapiens, UniProt P35968); experiment: VEGFR2 kinase assay; format: biochemical; conditions: 6 μM ATP, 1 mM MnCl2; rounded to 1 significant figure
# T3 construct: purchased Cell Signaling Technology
# T3 sequence (P35968 20-1356): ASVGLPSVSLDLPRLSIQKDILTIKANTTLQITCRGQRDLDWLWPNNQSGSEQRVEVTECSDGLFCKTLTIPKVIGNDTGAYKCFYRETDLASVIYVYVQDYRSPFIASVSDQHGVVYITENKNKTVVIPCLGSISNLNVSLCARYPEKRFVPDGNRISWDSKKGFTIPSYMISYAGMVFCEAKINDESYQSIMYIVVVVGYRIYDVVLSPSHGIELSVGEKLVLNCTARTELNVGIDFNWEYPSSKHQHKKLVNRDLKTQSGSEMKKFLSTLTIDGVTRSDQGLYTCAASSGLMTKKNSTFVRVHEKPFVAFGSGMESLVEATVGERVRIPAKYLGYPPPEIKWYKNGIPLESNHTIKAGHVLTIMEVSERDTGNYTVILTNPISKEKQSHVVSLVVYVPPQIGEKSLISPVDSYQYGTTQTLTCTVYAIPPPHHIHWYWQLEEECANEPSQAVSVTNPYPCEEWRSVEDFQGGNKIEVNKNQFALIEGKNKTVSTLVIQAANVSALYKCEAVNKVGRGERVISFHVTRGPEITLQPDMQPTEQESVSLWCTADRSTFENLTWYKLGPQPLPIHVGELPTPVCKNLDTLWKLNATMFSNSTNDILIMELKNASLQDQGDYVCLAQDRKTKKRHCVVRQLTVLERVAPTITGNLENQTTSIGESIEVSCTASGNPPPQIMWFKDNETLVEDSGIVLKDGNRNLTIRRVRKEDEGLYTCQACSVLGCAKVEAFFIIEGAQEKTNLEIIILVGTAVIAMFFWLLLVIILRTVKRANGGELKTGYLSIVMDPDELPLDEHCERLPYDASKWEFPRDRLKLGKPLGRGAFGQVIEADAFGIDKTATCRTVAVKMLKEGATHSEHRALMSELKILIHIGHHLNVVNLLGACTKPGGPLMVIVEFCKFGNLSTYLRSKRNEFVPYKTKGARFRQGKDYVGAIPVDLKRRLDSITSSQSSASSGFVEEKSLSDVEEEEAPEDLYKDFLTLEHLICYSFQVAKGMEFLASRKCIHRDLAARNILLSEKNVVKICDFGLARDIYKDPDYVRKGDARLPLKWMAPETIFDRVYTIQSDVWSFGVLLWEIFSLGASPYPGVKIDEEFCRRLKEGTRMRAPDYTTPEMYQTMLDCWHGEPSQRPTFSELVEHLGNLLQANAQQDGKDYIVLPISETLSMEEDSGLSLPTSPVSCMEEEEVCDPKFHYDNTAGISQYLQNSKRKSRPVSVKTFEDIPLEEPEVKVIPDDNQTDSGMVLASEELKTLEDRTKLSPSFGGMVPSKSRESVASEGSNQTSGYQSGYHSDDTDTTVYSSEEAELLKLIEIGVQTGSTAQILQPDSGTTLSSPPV
# Summary of the method: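 VEGFR2 phosphorylates CSKtide with 6 μM ATP and 1 mM MnCl2 for 1 hr, otherwise following the Aurora A kinase protocol. Detection by IMAP fluorescence polarization, binding reagent diluted 1:1200 in 1:1 binding buffer A/B. Run in duplicate with solvent control.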
# [7] = test system: HUVEC-2 (human umbilical vein endothelial cells); experiment: HUVEC VEGF-dependent proliferation assay (BrdU); format: cell-based; conditions: VEGF (25 ng/mL)-dependent proliferation, read-out: HUVEC IC50
# Text: as §1
# HUVEC-2 cells were seeded at 10^4 cells/well in a 96-well plate coated with 0.1% gelatin in complete medium. […] The compounds were serially diluted in DMSO, and added to the cells at 0.5% DMSO final concentration. After 2 hr, VEGF (25 ng/mL) was added; and after a further day, 5-bromo-2-deoxyuridine (BrdU, 10 μM) was added to label proliferating cells, and the cells incubated for another day. The plates were then processed using the Roche BrdU labeling and detection kit, and the VEGF-dependent antiproliferative activity of the compounds determined.
Compound,IC50 [1] [µM],IC50 [2] [µM],IC50 [3] [µM],IC50 [4] [µM],IC50 [5] [µM],IC50 [6] [µM],IC50 [7] [µM]
CCN(C(=O)CN1CCCCC1)c1ccc2c(c1)N/C(=C(/C(N)=O)c1nccc(C(F)(F)F)n1)N2 [Compound 146A],0.005,0.8,0.02,0.2,0.4,–,–
NC(=O)/C(=C1\Nc2ccccc2S1)c1nc(-c2ccccn2)cc(C(F)(F)F)n1 [Compound 11A],0.01,3,0.04,> 5,4,–,–
CCN(C(=O)[C@@H]1CCCN1C)c1ccc2c(c1)N/C(=C(/C(N)=O)c1nccc(C(F)(F)F)n1)N2 [Compound 145A],0.004,0.4,0.02,0.08,0.2,0.01,–
NC(=O)/C(=C1\Nc2ccccc2S1)c1nc(N)cc(C(F)(F)F)n1 [Compound 13A],0.003,1,0.01,0.8,0.7,–,–
NC(=O)/C(=C1\Nc2ccc(-c3ccccn3)cc2N1)c1nccc(C(F)(F)F)n1 [Compound 109A],0.009,0.5,0.02,> 5,3,0.05,–
NC(=O)/C(=C1\Nc2ccccc2S1)c1nc(C(F)(F)F)cc(C(F)(F)F)n1 [Compound 9A],0.007,> 20,0.01,> 5,> 20,0.06,–
"Cc1cc(C(F)(F)F)nc(C(C(N)=O)=C2Nc3ccc(NC(=O)[C@@H]4CCCN4C)cc3N2)n1 (single isomer, unassigned) [Compound 144A]",0.006,0.5,0.005,0.1,0.4,–,–
COc1ccnc(C(C(N)=O)=C2Nc3ccccc3N2)n1 [Compound 17A],0.03,5,0.3,0.6,5,0.001,–
NC(=O)/C(=C1\Nc2cc(F)c(Cl)cc2N1)c1nccc(C(F)(F)F)n1 [Compound 37A],0.02,4,0.03,0.5,2,0.4,–
NC(=O)C(=C1Nc2ccccc2N1)c1nc(N)cc(C(F)(F)F)n1 [Compound 12A],0.006,0.2,0.007,0.1,0.4,0.04,–
"NC(=O)C(=C1Nc2ccccc2S1)c1ncc(C(=O)O)c(C(F)(F)F)n1 (single isomer, unassigned) [Compound 5A, 2-[benzothiazol-2(3H)-ylidene]-2-(5-carboxy-4-trifluoromethylpyrimidin-2-yl)acetamide]",0.008,> 10,0.02,3,10,0.02,–
NC(=O)/C(=C1\Nc2ccc(-c3cccnc3)cc2N1)c1nccc(C(F)(F)F)n1 [Compound 107A],0.02,1,0.008,> 5,5,0.04,–
NC(=O)/C(=C1\Nc2ccc(CCn3ccnc3)cc2N1)c1nccc(C(F)(F)F)n1 [Compound 96A],0.003,0.1,0.002,0.04,0.3,0.006,–
CCN(CCCn1ccnc1)C(=O)c1ccc2c(c1)S/C(=C(/C(N)=O)c1nccc(C(F)(F)F)n1)N2 [Compound 49A],0.005,1,0.003,0.1,0.4,–,–
"CC(C)(C)c1cc(C(F)(F)F)nc(C(C(N)=O)=C2Nc3ccccc3S2)n1 (single isomer, unassigned) [Compound 7A, 2-[benzothiazol-2(3H)-ylidene]-2-[4-tert-butyl-6-(trifluoromethyl)pyrimidin-2-yl]acetamide]",0.02,0.08,0.007,> 5,6,0.03,–
NC(=O)/C(=C1\Nc2ccccc2S1)c1nc(-c2cccnc2)cc(C(F)(F)F)n1 [Compound 10A],0.01,2,0.01,5,1,0.04,–
Cn1ccnc1CCc1ccc2c(c1)S/C(=C(/C(N)=O)c1nccc(C(F)(F)F)n1)N2 [Compound 97A],0.007,1,0.02,0.1,0.6,–,–
Cc1cc(C(F)(F)F)nc(/C(C(N)=O)=C2/Nc3ccccc3S2)n1 [Compound 8A],0.008,0.2,0.01,1,2,0.06,–
NC(=O)/C(=C1\Nc2ccc(CCN3CCC(F)(F)CC3)cc2S1)c1nccc(C(F)(F)F)n1 [Compound 104A],0.01,1,0.03,2,3,0.06,–
NC(=O)/C(=C1\Nc2ccc(C(=O)Nc3ccc(CN4CCOCC4)cc3)cc2N1)c1nccc(C(F)(F)F)n1 [Compound 72A],0.02,–,0.02,0.3,0.2,0.02,0.08
NCCNC(=O)c1ccc2c(c1)S/C(=C(/C(N)=O)c1nccc(C(F)(F)F)n1)N2 [Compound 63A],0.03,–,0.03,0.4,0.2,0.005,0.06
NC(=O)C(=C1Nc2ccccc2N1)c1ncc(C(=O)NCCN2CCOCC2)c(C(F)(F)F)n1 [Compound 135A],0.02,–,0.03,0.5,4,0.1,0.6
NC(=O)/C(=C1\Nc2ccc(C(=O)N3CCC(N)CC3)cc2N1)c1nccc(C(F)(F)F)n1 [Compound 66A],0.01,–,0.02,0.2,0.2,0.002,0.05
NC(=O)/C(=C1\Nc2ccc(C(=O)N3CC[C@@H](N)C3)cc2N1)c1nccc(C(F)(F)F)n1 [Compound 68A],0.01,–,0.01,0.06,0.1,0.003,0.06
